According to ChEMBL document CHEMBL3745650, “Anti-inflammatory properties of quebecol and its derivatives” (Bioorg Med Chem Lett, 2016):

How the values were obtained:
[1] = Antiinflammatory activity in PMA-differentiated human U937 cells assessed as inhibition of LPS-stimulated IL-6 secretion at 250 uM preincubated for 2 hrs followed by LPS-stimulation measured after 24 hrs by ELISA relative to control; assay type: functional; conditions: U-937
[2] = Antiinflammatory activity in PMA-differentiated human U937 cells assessed as inhibition of LPS-stimulated IL-1beta secretion at 125 uM preincubated for 2 hrs followed by LPS-stimulation measured after 24 hrs by ELISA relative to control; assay type: functional; conditions: U-937
[3] = Antiinflammatory activity in PMA-differentiated human U937 cells assessed as inhibition of LPS-stimulated TNF-alpha secretion at 500 uM preincubated for 2 hrs followed by LPS-stimulation measured after 24 hrs by ELISA relative to control; assay type: functional; conditions: U-937
[4] = Antiinflammatory activity in human U937-3xkB-luc cells assessed as inhibition of LPS-induced NFkappaB activation at 5 uM preincubated for 30 mins followed by LPS-stimulation measured after 6 hrs by luciferase assay relative to control; assay type: functional; conditions: U-937
[5] = Antiinflammatory activity in PMA-differentiated human U937 cells assessed as inhibition of LPS-stimulated IL-8 secretion at 500 uM preincubated for 2 hrs followed by LPS-stimulation measured after 24 hrs by ELISA relative to control; assay type: functional; conditions: U-937
[6] = Antiinflammatory activity in human U937-3xkB-luc cells assessed as inhibition of LPS-induced NFkappaB activation at 20 uM preincubated for 30 mins followed by LPS-stimulation measured after 6 hrs by luciferase assay relative to control; assay type: functional; conditions: U-937
[7] = Antiinflammatory activity in PMA-differentiated human U937 cells assessed as inhibition of LPS-stimulated IL-8 secretion at 250 uM preincubated for 2 hrs followed by LPS-stimulation measured after 24 hrs by ELISA relative to control; assay type: functional; conditions: U-937
[8] = Antiinflammatory activity in human U937-3xkB-luc cells assessed as inhibition of LPS-induced NFkappaB activation at 100 uM preincubated for 30 mins followed by LPS-stimulation measured after 6 hrs by luciferase assay relative to control; assay type: functional; conditions: U-937
[9] = Antiinflammatory activity in PMA-differentiated human U937 cells assessed as inhibition of LPS-stimulated IL-6 secretion at 125 uM preincubated for 2 hrs followed by LPS-stimulation measured after 24 hrs by ELISA relative to control; assay type: functional; conditions: U-937
[10] = Antiinflammatory activity in PMA-differentiated human U937 cells assessed as inhibition of LPS-stimulated IL-1beta secretion at 500 uM preincubated for 2 hrs followed by LPS-stimulation measured after 24 hrs by ELISA relative to control; assay type: functional; conditions: U-937
[11] = Antiinflammatory activity in PMA-differentiated human U937 cells assessed as inhibition of LPS-stimulated TNF-alpha secretion at 125 uM preincubated for 2 hrs followed by LPS-stimulation measured after 24 hrs by ELISA relative to control; assay type: functional; conditions: U-937
[12] = Antiinflammatory activity in PMA-differentiated human U937 cells assessed as inhibition of LPS-stimulated TNF-alpha secretion at 250 uM preincubated for 2 hrs followed by LPS-stimulation measured after 24 hrs by ELISA relative to control; assay type: functional; conditions: U-937
[13] = Antiinflammatory activity in PMA-differentiated human U937 cells assessed as inhibition of LPS-stimulated IL-1beta secretion at 250 uM preincubated for 2 hrs followed by LPS-stimulation measured after 24 hrs by ELISA relative to control; assay type: functional; conditions: U-937
[14] = Antiinflammatory activity in PMA-differentiated human U937 cells assessed as inhibition of LPS-stimulated IL-8 secretion at 125 uM preincubated for 2 hrs followed by LPS-stimulation measured after 24 hrs by ELISA relative to control; assay type: functional; conditions: U-937
[15] = Antiinflammatory activity in PMA-differentiated human U937 cells assessed as inhibition of LPS-stimulated IL-6 secretion at 500 uM preincubated for 2 hrs followed by LPS-stimulation measured after 24 hrs by ELISA relative to control; assay type: functional; conditions: U-937
[16] = Cytotoxicity against PMA-differentiated human U937 macrophages assessed as reduction in cell viability after 24 hrs by MTT assay; assay type: cell-based; conditions: u-937, 24 h
[17] = Antiinflammatory activity in PMA-differentiated human U937 cells assessed as inhibition of LPS-stimulated TNF-alpha secretion at 62.5 uM preincubated for 2 hrs followed by LPS-stimulation measured after 24 hrs by ELISA relative to control; assay type: functional; conditions: U-937
[18] = Antiinflammatory activity in PMA-differentiated human U937 cells assessed as inhibition of LPS-stimulated IL-1beta secretion at 62.5 uM preincubated for 2 hrs followed by LPS-stimulation measured after 24 hrs by ELISA relative to control; assay type: functional; conditions: U-937
[19] = Antiinflammatory activity in PMA-differentiated human U937 cells assessed as inhibition of LPS-stimulated IL-6 secretion at 62.5 uM preincubated for 2 hrs followed by LPS-stimulation measured after 24 hrs by ELISA relative to control; assay type: functional; conditions: U-937
[20] = Antiinflammatory activity in PMA-differentiated human U937 cells assessed as inhibition of LPS-stimulated IL-8 secretion at 62.5 uM preincubated for 2 hrs followed by LPS-stimulation measured after 24 hrs by ELISA relative to control; assay type: functional; conditions: U-937
[21] = (§1) Antiinflammatory activity in PMA-differentiated human U937 cells assessed as inhibition of LPS-stimulated TNF-alpha secretion preincubated for 2 hrs followed by LPS-stimulation measured after 24 hrs by ELISA relative to control; assay type: functional, U-937
[22] = Antiinflammatory activity in human U937-3xkB-luc cells assessed as inhibition of LPS-induced NFkappaB activation preincubated for 30 mins followed by LPS-stimulation measured after 6 hrs by luciferase assay relative to control; assay type: functional, U-937
[23] = (§2) Antiinflammatory activity in PMA-differentiated human U937 cells assessed as inhibition of LPS-stimulated IL-6 secretion preincubated for 2 hrs followed by LPS-stimulation measured after 24 hrs by ELISA relative to control; assay type: functional, U-937
[24] = Antiinflammatory activity in PMA-differentiated human U937 cells assessed as inhibition of LPS-stimulated IL-8 secretion preincubated for 2 hrs followed by LPS-stimulation measured after 24 hrs by ELISA relative to control; assay type: functional, U-937
[25] = Antiinflammatory activity in PMA-differentiated human U937 cells assessed as inhibition of LPS-stimulated IL-1beta secretion preincubated for 2 hrs followed by LPS-stimulation measured after 24 hrs by ELISA relative to control; assay type: functional, U-937
U-937 [26] = assay: as §1; assay type: functional
U-937 [27] = assay: as §2; assay type: functional

Row | Structure (SMILES) | inhibition at 250 µM [1] | inhibition at 125 µM [2] | inhibition at 500 µM [3] | inhibition at 5 µM [4] | inhibition at 500 µM [5] | inhibition at 20 µM [6] | inhibition at 250 µM [7] | inhibition at 100 µM [8] | inhibition at 125 µM [9] | inhibition at 500 µM [10] | inhibition at 125 µM [11] | inhibition at 250 µM [12] | inhibition at 250 µM [13] | inhibition at 125 µM [14] | inhibition at 500 µM [15] | Activity [16] | inhibition at 62.5 µM [17] | inhibition at 62.5 µM [18] | inhibition at 62.5 µM [19] | inhibition at 62.5 µM [20] | other results
1 | COc1cc(C(O)C(=O)O)ccc1O (stereo not drawn) | 0% | 7.4% | 0% | 0% | 0% | 5.7% | 0% | 16.3% | 0% | 7.2% | 0% | 4.6% | 8% | 0% | 0% | > 1000 µM | – | – | – | – | –
2 | CCOC(=O)C(O)c1ccc(O)c(OC)c1 (stereo not drawn) | 0% | 4% | 0% | 16.4% | 0% | 6.5% | 0% | 0% | 0% | 0% | 0% | 0% | 0% | 0% | 0% | > 1000 µM | – | – | – | – | –
3 | COc1cc(CC(=O)O)ccc1O [HOMOVANILLIC ACID] | 0% | 5.2% | 0% | 24% | 0% | 16.3% | 0% | 22.9% | 0% | 3.6% | 0% | 0% | 5.7% | 0% | 0% | > 1000 µM | – | – | – | – | –
4 | CCOC(=O)C(=C(c1ccc(O)c(OC)c1)c1ccc(O)c(OC)c1)c1ccc(O)c(OC)c1 | 99.9% | 26.2% | 100% | 12.8% | 99.9% | 15.9% | 99.7% | 79.9% | 97.2% | 83.9% | 92.3% | 100% | 85.2% | 99.5% | 99.9% | 62.5 µM | 15.9% | 0% | 27.3% | 22.7% | –
5 | COc1cc(Cc2ccc(O)c(OC)c2)ccc1O | 62.3% | 3% | 72.2% | 11% | 26.9% | 28.9% | 15% | 43.1% | 4.3% | 49.2% | 7.6% | 15% | 33.4% | 7.1% | 95.3% | 500 µM | – | – | – | – | –
6 | Cc1ccc(S(=O)(=O)/C=C/C#N)cc1 | – | – | – | – | – | – | – | – | – | – | – | – | – | – | – | – | – | – | – | – | inhibition (INH) [21]: 99.5%; inhibition (INH) [22]: 99.3%; inhibition (INH) [23]: 99.2%; inhibition (INH) [24]: 99.1%; inhibition (INH) [25]: 95.9%
7 | COc1cc(C(CO)C(c2ccc(O)c(OC)c2)c2ccc(O)c(OC)c2)ccc1O (stereo not drawn) | 62.6% | 25.1% | 60% | 11.2% | 0.3% | 13.5% | 0% | 43.4% | 45.5% | 0.9% | 19.8% | 17.5% | 9.4% | 0.2% | 84.3% | 500 µM | 0% | 1.1% | 1.1% | 0% | inhibition (U-937 [26]): Dose-dependent effect; inhibition (U-937 [27]): Dose-dependent effect
8 | CCOC(=O)C(c1ccc(O)c(OC)c1)C(c1ccc(O)c(OC)c1)c1ccc(O)c(OC)c1 (stereo not drawn) | 99.8% | 1.2% | 100% | 24% | 99.9% | 31.2% | 95% | 74.7% | 89.9% | 91.4% | 15.7% | 100% | 10.9% | 94.9% | 99.9% | 125 µM | 8.5% | 0% | 4.8% | 0% | –
9 | COc1cc(CCO)ccc1O | 0% | 24.4% | 0% | 0% | 0% | 2.6% | 0% | 8.3% | 0% | 11.3% | 6% | 5.2% | 17.4% | 0% | 0% | > 1000 µM | – | – | – | – | –
10 | CCOC(=O)Cc1ccc(O)c(OC)c1 | 0% | 2.7% | 6.9% | 13.6% | 0% | 21.8% | 0% | 14.6% | 0% | 0% | 0.1% | 1.1% | 5.7% | 0% | 0% | > 1000 µM | – | – | – | – | –
